Data taken from patent US20160038505A1, “METHODS AND COMPOSITIONS FOR TREATING IMPULSE CONTROL DISORDER, ANXIETY-RELATED DISORDERS, VIOLENCE AND/OR ANGER, OR REGULATING FOOD INTAKE” (priority 2014, published 2016).
Entries after “also recorded” stand apart in the source; their conditions may differ.

Columns and labels:
[1] = tested on: healthy, drug-free male volunteers; experiment: Pupillometry (pupillary miosis) in healthy volunteers; assay type: in vivo, human; settings: 3-60 mg single oral dose, vs placebo p>0.9
Protocol: Pulse oximetry and capnography data were collected continuously using a GE Carescape B650 monitoring system from 2 hours prior to dosing and until six hours after dosing, and thereafter at 12, 24, 48 and 72 hours post-dosing. […] Pupillary miosis was assessed by pupillometry.

Sprague-Dawley rat = experiment: Food maintained responding test, regulation of food intake in rats; assay type: in vivo
[2] = Serum pharmacokinetics in opioid-dependent patients (Phase IB); assay type: in vivo, human; design: unit not given here
Protocol: Three cohorts of nine (9) subjects (6 administered noribogaine and 3 administered placebo in each cohort) were evaluated for tolerability, pharmacokinetics, and efficacy. Cohort 1 received a single dose of 60 mg noribogaine or placebo. Cohort 2 received a single dose of 120 mg noribogaine or placebo. Cohort 3 received a single dose of 180 mg noribogaine or placebo.
FIG. 4 indicates the serum noribogaine concentration over time for each cohort.

[3] = Human pharmacokinetic study, single oral tablet, fasting healthy volunteers (serum); assay type: in vivo; settings: fasting, serum
Protocol: In double blind studies, fasting healthy volunteers (6 per cohort) were treated once orally with a tablet of noribogaine HCl. In escalating cohorts, the volunteers received 3 mg, 10 mg, 30 mg or 60 mg noribogaine.

[4] = tested on: healthy, drug-free male volunteers; experiment: Cold pressor test in healthy volunteers; assay type: in vivo, human; settings: 3-60 mg single oral dose, 1° C. water
Protocol: Analgesic effect was assessed based on duration of hand immersion in ice water and on visual analog scale (VAS) pain scores upon hand removal from the water bath.
(§1) Safety and tolerability of noribogaine were tested in the group of volunteers from Example 9. […] Safety evaluations included clinical monitoring, recording of adverse events (AEs), safety laboratory tests, vital signs, ECG telemetry from −2 h to 6 h after dosing, and 12-lead electrocardiograms (ECGs) up to 216 hours post-dosing.

[5] = tested on: healthy, drug-free male volunteers; experiment: Safety and tolerability of noribogaine in healthy humans; assay type: in vivo, human
Protocol: as §1

dogs = experiment: Single dose (acute oral) toxicity/TK study in dogs; assay type: in vivo, dog

Question: For CC[C@H]1CC2C[C@H]3c4[nH]c5ccc(O)cc5c4CCN(C2)C13 [noribogaine], which “pupillary constriction (pupil diameter)” value [1] is on record?
Answer: no evidence of pupillary constriction

Question: And the “decrease in food intake” value (Sprague-Dawley rat; 25 mg/kg PO, P<0.05)?
Answer: 10%

Question: And the “decrease in food intake” value (Sprague-Dawley rat; 50 mg/kg PO, P<0.001)?
Answer: 25%

Question: And the “effect on food consumption compared to vehicle” value (“effect … compared to vehicle” below) (Sprague-Dawley rat; noribogaine 12.5 mg/kg PO 2 hours prior to test)?
Answer: no significant effect; also recorded: no effect on food consumption

Question: What about the “effect … compared to vehicle” value (Sprague-Dawley rat; noribogaine 25 mg/kg PO 2 hours prior to test, P<0.05) of the same molecule?
Answer: significantly decreased food consumption

Question: What about the “effect … compared to vehicle” value (Sprague-Dawley rat; noribogaine 50 mg/kg PO 2 hours prior to test, P<0.001) of the same molecule?
Answer: significantly decreased food consumption

Question: What about the Serum noribogaine concentration ([2]; 60 mg, time 0) of the same molecule?
Answer: 0

Question: And the Serum noribogaine concentration ([2]; 60 mg, time 0.5)?
Answer: 3.75

Question: And the Serum noribogaine concentration ([2]; 60 mg, time 1)?
Answer: 17.86

Question: What about the Serum noribogaine concentration ([2]; 60 mg, time 1.5) of the same molecule?
Answer: 42.54

Question: What about the Serum noribogaine concentration ([2]; 60 mg, time 2) of the same molecule?
Answer: 53.01

Question: What about the Serum noribogaine concentration ([2]; 60 mg, time 2.5) of the same molecule?
Answer: 63.71

Question: And the Serum noribogaine concentration ([2]; 60 mg, time 3)?
Answer: 72.95

Question: What about the Serum noribogaine concentration ([2]; 60 mg, time 3.5) of the same molecule?
Answer: 71.43

Question: What about the Serum noribogaine concentration ([2]; 60 mg, time 4) of the same molecule?
Answer: 72.89

Question: And the Serum noribogaine concentration ([2]; 60 mg, time 5)?
Answer: 65.74

Question: And the Serum noribogaine concentration ([2]; 60 mg, time 6)?
Answer: 64.47

Question: What about the Serum noribogaine concentration ([2]; 60 mg, time 7) of the same molecule?
Answer: 58.26

Question: What about the Serum noribogaine concentration ([2]; 60 mg, time 8) of the same molecule?
Answer: 59.01

Question: And the Serum noribogaine concentration ([2]; 60 mg, time 12)?
Answer: 46.10

Question: What about the Serum noribogaine concentration ([2]; 60 mg, time 16) of the same molecule?
Answer: 37.99

Question: What about the Serum noribogaine concentration ([2]; 60 mg, time 24) of the same molecule?
Answer: 27.76

Question: And the Serum noribogaine concentration ([2]; 60 mg, time 36)?
Answer: 20.32

Question: What about the Serum noribogaine concentration ([2]; 60 mg, time 48) of the same molecule?
Answer: 14.56

Question: And the Serum noribogaine concentration ([2]; 60 mg, time 60)?
Answer: 9.32

Question: What about the Serum noribogaine concentration ([2]; 60 mg, time 72) of the same molecule?
Answer: 6.55

Question: And the Serum noribogaine concentration ([2]; 60 mg, time 96)?
Answer: 3.41

Question: And the Serum noribogaine concentration ([2]; 60 mg, time 120)?
Answer: 1.64

Question: And the Serum noribogaine concentration ([2]; 60 mg, time 144)?
Answer: 0.89

Question: What about the Serum noribogaine concentration ([2]; 120 mg, time 0) of the same molecule?
Answer: 0

Question: What about the Serum noribogaine concentration ([2]; 120 mg, time 0.5) of the same molecule?
Answer: 19.66

Question: And the Serum noribogaine concentration ([2]; 120 mg, time 1)?
Answer: 76.04

Question: And the Serum noribogaine concentration ([2]; 120 mg, time 1.5)?
Answer: 98.80

Question: And the Serum noribogaine concentration ([2]; 120 mg, time 2)?
Answer: 122.67

Question: What about the Serum noribogaine concentration ([2]; 120 mg, time 2.5) of the same molecule?
Answer: 135.05

Question: What about the Serum noribogaine concentration ([2]; 120 mg, time 3) of the same molecule?
Answer: 130.55

Question: And the Serum noribogaine concentration ([2]; 120 mg, time 3.5)?
Answer: 128.20

Question: And the Serum noribogaine concentration ([2]; 120 mg, time 4)?
Answer: 143.90

Question: What about the Serum noribogaine concentration ([2]; 120 mg, time 5) of the same molecule?
Answer: 128.76

Question: And the Serum noribogaine concentration ([2]; 120 mg, time 6)?
Answer: 118.16

Question: And the Serum noribogaine concentration ([2]; 120 mg, time 7)?
Answer: 110.76

Question: What about the Serum noribogaine concentration ([2]; 120 mg, time 8) of the same molecule?
Answer: 102.12

Question: And the Serum noribogaine concentration ([2]; 120 mg, time 12)?
Answer: 77.88

Question: And the Serum noribogaine concentration ([2]; 120 mg, time 16)?
Answer: 62.24

Question: What about the Serum noribogaine concentration ([2]; 120 mg, time 24) of the same molecule?
Answer: 44.19

Question: And the Serum noribogaine concentration ([2]; 120 mg, time 36)?
Answer: 28.83

Question: What about the Serum noribogaine concentration ([2]; 120 mg, time 48) of the same molecule?
Answer: 19.54

Question: And the Serum noribogaine concentration ([2]; 120 mg, time 60)?
Answer: 10.75

Question: What about the Serum noribogaine concentration ([2]; 120 mg, time 72) of the same molecule?
Answer: 7.75

Question: And the Serum noribogaine concentration ([2]; 120 mg, time 96)?
Answer: 4.66

Question: And the Serum noribogaine concentration ([2]; 120 mg, time 120)?
Answer: 2.45

Question: What about the Serum noribogaine concentration ([2]; 120 mg, time 144) of the same molecule?
Answer: 1.20

Question: And the Serum noribogaine concentration ([2]; 180 mg, time 0)?
Answer: 0

Question: What about the Serum noribogaine concentration ([2]; 180 mg, time 0.5) of the same molecule?
Answer: 10.78

Question: What about the Serum noribogaine concentration ([2]; 180 mg, time 1) of the same molecule?
Answer: 65.68

Question: What about the Serum noribogaine concentration ([2]; 180 mg, time 1.5) of the same molecule?
Answer: 134.19

Question: And the Serum noribogaine concentration ([2]; 180 mg, time 2)?
Answer: 163.32

Question: And the Serum noribogaine concentration ([2]; 180 mg, time 2.5)?
Answer: 179.63

Question: What about the Serum noribogaine concentration ([2]; 180 mg, time 3) of the same molecule?
Answer: 221.67

Question: What about the Serum noribogaine concentration ([2]; 180 mg, time 3.5) of the same molecule?
Answer: 236.27

Question: What about the Serum noribogaine concentration ([2]; 180 mg, time 4) of the same molecule?
Answer: 238.87

Question: And the Serum noribogaine concentration ([2]; 180 mg, time 5)?
Answer: 217.26

Question: And the Serum noribogaine concentration ([2]; 180 mg, time 6)?
Answer: 197.10

Question: What about the Serum noribogaine concentration ([2]; 180 mg, time 7) of the same molecule?
Answer: 207.47

Question: What about the Serum noribogaine concentration ([2]; 180 mg, time 8) of the same molecule?
Answer: 185.55

Question: And the Serum noribogaine concentration ([2]; 180 mg, time 12)?
Answer: 159.53

Question: What about the Serum noribogaine concentration ([2]; 180 mg, time 16) of the same molecule?
Answer: 127.63

Question: What about the Serum noribogaine concentration ([2]; 180 mg, time 24) of the same molecule?
Answer: 97.34

Question: And the Serum noribogaine concentration ([2]; 180 mg, time 36)?
Answer: 59.50

Question: What about the Serum noribogaine concentration ([2]; 180 mg, time 48) of the same molecule?
Answer: 43.75

Question: And the Serum noribogaine concentration ([2]; 180 mg, time 60)?
Answer: 33.69

Question: And the Serum noribogaine concentration ([2]; 180 mg, time 72)?
Answer: 23.06

Question: What about the Serum noribogaine concentration ([2]; 180 mg, time 96) of the same molecule?
Answer: 13.04

Question: What about the Serum noribogaine concentration ([2]; 180 mg, time 120) of the same molecule?
Answer: 3.37

Question: And the Serum noribogaine concentration ([2]; 180 mg, time 144)?
Answer: 1.61

Question: And the “mean AUC/24 hr” value ([3]; single dose of 3 mg)?
Answer: 3.1 ng/mL

Question: And the “time after administration at which mean Cmax was observed” value (“time after administration” below) ([3]; single dose of 3 mg)?
Answer: 1.9 h

Question: And the “mean AUC/24 hr” value ([3]; single dose of 10 mg)?
Answer: 10.6 ng/mL

Question: What about the “time after administration” value ([3]; single dose of 10 mg) of the same molecule?
Answer: 2.9 h

Question: And the “mean AUC/24” value ([3]; single dose of 30 mg)?
Answer: 29.2 ng/mL

Question: And the “time after administration” value ([3]; single dose of 30 mg)?
Answer: 1.75 h

Question: And the “mean AUC/24” value ([3]; single dose of 60 mg)?
Answer: 61 ng/mL

Question: And the “time after administration” value ([3]; single dose of 60 mg)?
Answer: 1.75 h

Question: What about the “analgesic effect (duration of hand immersion, VAS pain scores)” value [4] of the same molecule?
Answer: no analgesic effect

Question: What about the “adverse events, Mild” value ([5]; 3 mg) of the same molecule?
Answer: Dizziness; also recorded: Epistaxis; also recorded: Headache; also recorded: Back pain

Question: What about the “adverse events, Moderate” value ([5]; 3 mg) of the same molecule?
Answer: Headache

Question: What about the “number of adverse events reported” value ([5]; 3 mg dose group) of the same molecule?
Answer: five adverse events were reported by two subjects

Question: What about the “adverse events, Mild” value ([5]; 10 mg) of the same molecule?
Answer: Headache

Question: What about the “number of adverse events reported” value ([5]; 10 mg dose group, single subject) of the same molecule?
Answer: one adverse event

Question: And the “adverse events, Mild” value ([5]; 30 mg)?
Answer: Headache

Question: And the “number of adverse events reported” value ([5]; 30 mg dose group, single subject)?
Answer: one adverse event

Question: What about the “oximetry, capnography, respiratory rate” value ([5]; 3-60 mg) of the same molecule?
Answer: no changes in oximetry or capnography, or changes in respiratory rate

Question: And the “vital signs and safety laboratory tests” value ([5]; 3-60 mg)?
Answer: no changes in vital signs or safety laboratory tests of note

Question: And the QTcF values ([5]; 3-60 mg, at any time)?
Answer: ≤ 500 ms

Question: What about the “single increase in QTcF” value ([5]; one subject dosed with 10 mg, 24 hours post-dosing) of the same molecule?
Answer: > 60 ms

Question: And the “findings at NOAEL dose” value (dogs; 5 mg/kg)?
Answer: only transient reduction in food consumption in one dog

Question: And the clinical signs (dogs; 10 mg/kg, from 20 minutes until 3 h 40 m post-dose)?
Answer: Convulsions and other CNS-related clinical signs

Question: What about the mortality (dogs; 5 (n=2) or 10 (n=2) mg/kg oral) of the same molecule?
Answer: no mortality occurred
